Data published in patent US20230219986A1, “NOVEL AMINOPYRIMIDINE EGFR INHIBITOR” (QILU PHARMACEUTICAL CO., LTD., priority 2020, published 2023).

Tests used:
wild-type EGFR = target: T1, wild-type EGFR (Homo sapiens, UniProt P00533); assay: Enzymology experiment in vitro (HTRF/FRET kinase activity), wild-type EGFR; assay type: biochemical; conditions: HTRF KinEASE-TK, read-out: EGFR (WT) IC50
T1 construct: purchased Signalchem
In short: (§1)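 Kinase reaction run 40 min at room temperature with peptide and ATP after a 10 min compound–enzyme preincubation. Phosphorylation read as HTRF signal after 1 h with Eu³⁺ antibody, XL665-streptavidin and EDTA (Cisbio KinEASE-TK).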

[1] = target: Ba/F3 L858R/T790M/C797S EGFR triple mutant cell line (Homo sapiens, UniProt P00533, T790M/C797S/L858R, cells depend on it); assay: Cell proliferation inhibition experiment (CellTiter-Glo), Ba/F3 L858R/T790M/C797S; assay type: cell-based; conditions: 72 hours, Cell Titer-Glo, read-out: Ba/F3 (L858R/T790M/C797S) IC50
Chain of Ba/F3 L858R/T790M/C797S EGFR triple mutant cell line (P00533 whole entry T790M/C797S/L858R): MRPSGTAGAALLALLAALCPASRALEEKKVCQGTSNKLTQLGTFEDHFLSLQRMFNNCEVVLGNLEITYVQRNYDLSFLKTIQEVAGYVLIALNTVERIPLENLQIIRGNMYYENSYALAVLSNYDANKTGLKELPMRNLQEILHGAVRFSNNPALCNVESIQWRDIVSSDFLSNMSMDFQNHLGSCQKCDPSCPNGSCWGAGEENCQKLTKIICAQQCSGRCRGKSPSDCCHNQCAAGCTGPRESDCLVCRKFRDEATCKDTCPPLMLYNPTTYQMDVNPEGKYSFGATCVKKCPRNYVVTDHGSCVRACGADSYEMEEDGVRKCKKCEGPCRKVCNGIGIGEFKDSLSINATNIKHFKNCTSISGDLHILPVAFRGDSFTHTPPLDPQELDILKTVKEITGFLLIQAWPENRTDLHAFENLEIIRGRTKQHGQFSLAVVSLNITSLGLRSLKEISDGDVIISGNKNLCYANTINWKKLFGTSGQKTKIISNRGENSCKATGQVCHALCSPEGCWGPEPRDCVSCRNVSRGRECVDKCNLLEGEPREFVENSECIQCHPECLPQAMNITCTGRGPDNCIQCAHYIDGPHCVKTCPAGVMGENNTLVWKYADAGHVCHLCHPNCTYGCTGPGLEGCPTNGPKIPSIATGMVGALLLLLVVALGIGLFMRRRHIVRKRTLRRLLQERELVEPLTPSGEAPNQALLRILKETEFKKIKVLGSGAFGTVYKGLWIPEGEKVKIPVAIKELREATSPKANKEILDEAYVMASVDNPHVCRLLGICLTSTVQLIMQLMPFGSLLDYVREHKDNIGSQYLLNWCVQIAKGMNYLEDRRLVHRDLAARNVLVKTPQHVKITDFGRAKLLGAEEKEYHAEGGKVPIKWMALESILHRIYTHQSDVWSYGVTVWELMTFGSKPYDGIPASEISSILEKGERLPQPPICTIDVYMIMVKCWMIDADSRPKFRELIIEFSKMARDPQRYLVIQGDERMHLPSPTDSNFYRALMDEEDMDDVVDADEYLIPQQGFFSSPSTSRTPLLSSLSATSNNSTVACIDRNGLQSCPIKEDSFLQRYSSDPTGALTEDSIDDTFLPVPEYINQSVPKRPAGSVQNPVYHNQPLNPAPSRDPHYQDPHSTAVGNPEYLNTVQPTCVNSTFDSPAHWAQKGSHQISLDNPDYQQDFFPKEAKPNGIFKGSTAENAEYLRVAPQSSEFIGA

[2] = target: T2, L858R/T790M/C797S triple mutant EGFR (Homo sapiens, UniProt P00533, C797S/L858R/T790M); assay: Enzymology experiment in vitro (HTRF/FRET kinase activity), L858R/T790M/C797S triple mutant EGFR; assay type: biochemical; conditions: HTRF KinEASE-TK, read-out: EGFR (L858R/T790M/C797S) IC50
T2 construct: purchased Signalchem
T2 sequence (P00533 25-1210 T790M/C797S/L858R): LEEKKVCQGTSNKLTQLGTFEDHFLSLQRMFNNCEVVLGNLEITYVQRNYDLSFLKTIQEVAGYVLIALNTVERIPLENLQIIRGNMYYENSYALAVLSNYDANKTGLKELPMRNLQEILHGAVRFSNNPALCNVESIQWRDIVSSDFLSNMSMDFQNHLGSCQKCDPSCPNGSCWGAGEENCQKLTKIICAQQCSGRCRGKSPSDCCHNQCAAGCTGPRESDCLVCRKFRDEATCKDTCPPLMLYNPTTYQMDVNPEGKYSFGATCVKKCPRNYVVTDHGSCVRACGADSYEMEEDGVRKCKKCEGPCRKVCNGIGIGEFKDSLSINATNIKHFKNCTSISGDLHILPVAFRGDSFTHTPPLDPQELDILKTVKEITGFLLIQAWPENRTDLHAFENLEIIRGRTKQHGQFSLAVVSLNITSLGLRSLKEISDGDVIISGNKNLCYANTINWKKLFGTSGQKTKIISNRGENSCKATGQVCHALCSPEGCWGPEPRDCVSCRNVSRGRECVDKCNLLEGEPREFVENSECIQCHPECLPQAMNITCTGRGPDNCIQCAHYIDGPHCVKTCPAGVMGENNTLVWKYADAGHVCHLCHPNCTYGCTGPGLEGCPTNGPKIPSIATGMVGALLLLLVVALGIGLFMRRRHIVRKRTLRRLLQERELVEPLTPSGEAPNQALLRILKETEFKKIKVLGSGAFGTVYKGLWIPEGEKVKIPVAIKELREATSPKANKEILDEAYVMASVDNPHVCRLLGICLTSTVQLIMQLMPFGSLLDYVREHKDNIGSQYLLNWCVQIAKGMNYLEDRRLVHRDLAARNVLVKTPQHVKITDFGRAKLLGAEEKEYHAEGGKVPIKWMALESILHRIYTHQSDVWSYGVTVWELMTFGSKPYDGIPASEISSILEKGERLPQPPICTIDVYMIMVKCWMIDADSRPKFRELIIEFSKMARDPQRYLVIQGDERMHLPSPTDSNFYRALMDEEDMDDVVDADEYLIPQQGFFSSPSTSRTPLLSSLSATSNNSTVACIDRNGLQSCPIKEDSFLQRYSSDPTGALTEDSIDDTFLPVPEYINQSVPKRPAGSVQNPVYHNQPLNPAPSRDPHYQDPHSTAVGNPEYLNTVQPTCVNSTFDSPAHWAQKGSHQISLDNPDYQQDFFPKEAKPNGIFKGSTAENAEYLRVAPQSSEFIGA
In short: as §1

[3] = tested on: EGFR wild-type cell line A431; assay: Cell proliferation inhibition experiment (CellTiter-Glo), A431; assay type: cell-based; conditions: Homo sapiens, A-431, 72 h, A431 cells, Cell Titer-Glo, read-out: A431 EGFR WT IC50
In short: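 Luminescent CellTiter-Glo readout, 30 min at room temperature, after 72 h compound exposure at 37° C., 5% CO2 with 0.1% DMSO final. EGFR wild-type A431 cells were seeded at 800 per well and grown 24 h before dosing. IC50 derived from the dose-response.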

[4] = target: Ba/F3 De119/T790M/C797S EGFR triple mutant cell line (Homo sapiens, UniProt P00533, T790M/C797S, cells depend on it, form not given); assay: Cell proliferation inhibition experiment (CellTiter-Glo), Ba/F3 De119/T790M/C797S; assay type: cell-based; conditions: Ba/F3 Del19/T790M/C797S EGFR triple mutant cells, 72 hours, Cell Titer-Glo; read-out: Ba/F3 (Del19/T790M/C797S) IC50
Chain of Ba/F3 De119/T790M/C797S EGFR triple mutant cell line (P00533 with tags, fused parts or gaps DEL746-750/T790M/C797S, form open): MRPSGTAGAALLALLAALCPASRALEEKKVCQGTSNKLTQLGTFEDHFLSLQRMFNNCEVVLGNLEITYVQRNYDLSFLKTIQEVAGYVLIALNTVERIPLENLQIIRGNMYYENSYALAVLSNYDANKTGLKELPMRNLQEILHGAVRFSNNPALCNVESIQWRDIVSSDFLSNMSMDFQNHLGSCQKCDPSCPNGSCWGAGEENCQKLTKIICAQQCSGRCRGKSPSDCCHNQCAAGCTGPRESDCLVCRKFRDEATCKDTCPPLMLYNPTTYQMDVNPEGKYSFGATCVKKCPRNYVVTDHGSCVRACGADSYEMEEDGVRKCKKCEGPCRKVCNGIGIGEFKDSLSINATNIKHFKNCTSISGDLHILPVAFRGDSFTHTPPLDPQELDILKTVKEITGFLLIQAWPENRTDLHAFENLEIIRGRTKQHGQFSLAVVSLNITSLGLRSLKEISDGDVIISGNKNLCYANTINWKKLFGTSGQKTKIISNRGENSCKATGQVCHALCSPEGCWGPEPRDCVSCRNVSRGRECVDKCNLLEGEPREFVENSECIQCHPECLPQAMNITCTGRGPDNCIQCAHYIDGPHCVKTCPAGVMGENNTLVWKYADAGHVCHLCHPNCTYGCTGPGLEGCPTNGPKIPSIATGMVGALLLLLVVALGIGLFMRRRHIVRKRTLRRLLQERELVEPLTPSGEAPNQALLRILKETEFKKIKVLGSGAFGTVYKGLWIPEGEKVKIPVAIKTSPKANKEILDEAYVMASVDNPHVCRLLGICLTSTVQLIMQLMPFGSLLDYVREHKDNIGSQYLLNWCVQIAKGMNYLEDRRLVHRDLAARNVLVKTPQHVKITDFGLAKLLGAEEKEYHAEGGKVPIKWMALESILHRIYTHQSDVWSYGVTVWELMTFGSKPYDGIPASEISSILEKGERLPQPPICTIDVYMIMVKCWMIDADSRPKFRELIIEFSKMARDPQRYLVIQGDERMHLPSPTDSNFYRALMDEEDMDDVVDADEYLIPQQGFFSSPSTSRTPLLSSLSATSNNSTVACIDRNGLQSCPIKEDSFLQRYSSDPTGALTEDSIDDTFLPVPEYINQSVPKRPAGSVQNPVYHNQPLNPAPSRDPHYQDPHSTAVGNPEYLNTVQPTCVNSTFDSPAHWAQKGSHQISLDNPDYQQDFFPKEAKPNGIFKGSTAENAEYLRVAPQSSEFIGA

T1 sequence (P00533 25-1210): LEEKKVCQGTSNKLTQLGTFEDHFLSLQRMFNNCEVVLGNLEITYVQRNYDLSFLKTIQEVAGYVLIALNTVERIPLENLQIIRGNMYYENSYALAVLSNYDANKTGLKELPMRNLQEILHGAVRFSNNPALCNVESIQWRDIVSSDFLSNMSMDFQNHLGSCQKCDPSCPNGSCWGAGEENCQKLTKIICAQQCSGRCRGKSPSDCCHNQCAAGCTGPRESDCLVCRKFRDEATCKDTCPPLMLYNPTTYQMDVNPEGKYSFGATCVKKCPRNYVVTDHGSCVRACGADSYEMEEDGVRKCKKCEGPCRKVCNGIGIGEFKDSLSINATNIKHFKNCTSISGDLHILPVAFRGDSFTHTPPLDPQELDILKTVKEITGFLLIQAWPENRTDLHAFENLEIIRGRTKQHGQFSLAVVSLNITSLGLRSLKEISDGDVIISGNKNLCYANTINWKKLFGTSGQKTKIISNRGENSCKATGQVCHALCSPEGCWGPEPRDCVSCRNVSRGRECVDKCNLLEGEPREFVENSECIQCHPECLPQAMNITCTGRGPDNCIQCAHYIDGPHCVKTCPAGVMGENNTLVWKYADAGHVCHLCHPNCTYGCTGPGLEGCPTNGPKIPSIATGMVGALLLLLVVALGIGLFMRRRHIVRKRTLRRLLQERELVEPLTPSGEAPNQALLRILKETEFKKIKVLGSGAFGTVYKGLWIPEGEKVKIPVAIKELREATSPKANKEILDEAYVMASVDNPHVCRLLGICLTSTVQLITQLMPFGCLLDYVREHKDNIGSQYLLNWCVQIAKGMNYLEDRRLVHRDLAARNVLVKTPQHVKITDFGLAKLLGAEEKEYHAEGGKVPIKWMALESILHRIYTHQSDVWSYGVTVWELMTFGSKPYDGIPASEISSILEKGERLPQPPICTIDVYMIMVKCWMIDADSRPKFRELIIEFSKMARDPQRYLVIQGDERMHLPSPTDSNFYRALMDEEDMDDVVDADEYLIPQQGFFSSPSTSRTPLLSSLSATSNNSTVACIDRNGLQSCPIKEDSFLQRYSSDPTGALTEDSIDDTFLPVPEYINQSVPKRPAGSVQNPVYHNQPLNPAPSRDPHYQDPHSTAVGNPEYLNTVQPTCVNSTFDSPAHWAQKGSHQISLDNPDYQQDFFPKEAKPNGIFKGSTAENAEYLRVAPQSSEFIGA

IC50 (wild-type EGFR) | GI50 [1] | IC50 [2] | IC50 [3] | GI50 [4] | SMILES
3.1 nM | 5.38 nM | 0.33 nM | 41.3 nM | 1.7 nM | COc1cc(N2CCN3CCCC[C@@H]3C2)c(-c2cnn(C)c2)cc1Nc1ncc(Br)c(Nc2ccc3nccnc3c2P(C)(C)=O)n1 [compound 175]
3.26 nM | 5.96 nM | 0.34 nM | 61.9 nM | 2.97 nM | COc1cc(N2CCN3CCC[C@@H]3C2)c(-c2cnn(C)c2)cc1Nc1ncc(Br)c(Nc2ccc3nccnc3c2P(C)(C)=O)n1 [compound 176]
7.68 nM | 13 nM | 1.29 nM | 168 nM | 2.86 nM | COc1cc(N2CCN(S(=O)(=O)C3CC3)CC2)c(-c2cnn(C)c2)cc1Nc1ncc(Br)c(Nc2ccc3nccnc3c2P(C)(C)=O)n1 [compound 178]
1.48 nM | 6.84 nM | 0.4 nM | 54.3 nM | 1.37 nM | COc1cc(N2CCC(N3CCC(OC)CC3)CC2)c(-c2cnn(C)c2)cc1Nc1ncc(Br)c(Nc2ccc3nccnc3c2P(C)(C)=O)n1 [compound 179]
1.4 nM | 6.53 nM | 0.36 nM | 64.8 nM | 4.13 nM | COc1cc(N2CCC(N3CCC(F)CC3)CC2)c(-c2cnn(C)c2)cc1Nc1ncc(Br)c(Nc2ccc3nccnc3c2P(C)(C)=O)n1 [compound 180]
3.53 nM | 9.67 nM | 0.16 nM | 88.9 nM | 3.52 nM | [2H]C([2H])([2H])OCCN1CCN(c2cc(OC)c(Nc3ncc(Br)c(Nc4ccc5nccnc5c4P(C)(C)=O)n3)cc2-c2cnn(C)c2)CC1 [compound 181]
8.49 nM | 4.43 nM | 0.4 nM | 101 nM | 1.71 nM | COc1cc(N2CCOC(COC(C)C)C2)c(-c2cnn(C)c2)cc1Nc1ncc(Br)c(Nc2ccc3nccnc3c2P(C)(C)=O)n1 (centres unmarked) [compound 182]
12.2 nM | 27 nM | 1.12 nM | 246 nM | 14.4 nM | COc1cc(N2CCC3(CCN(C)CC3)CC2)c(-c2cnn(C)c2)cc1Nc1ncc(Br)c(Nc2ccccc2N(C)S(=O)(=O)C2CC2)n1 [compound 183, N-(2-((5-Bromo-2-((2-methoxy-5-(1-methyl-1H-pyrazol-4-yl)-4-)(9-methyl-3,9-diazaspiro[5.5]undecan-3-yl)phenyl)amino)pyrimidin-4-yl)amino)phenyl-N-methylcyclopropanesulfonamide]
2.23 nM | 5.67 nM | 0.24 nM | 218 nM | 2.28 nM | COc1cc(N2CCN(C3(C)COC3)CC2)c(-c2cnn(C)c2)cc1Nc1ncc(Br)c(Nc2ccc3nccnc3c2P(C)(C)=O)n1 [compound 184]
2.42 nM | 4.02 nM | 0.36 nM | 127 nM | 1.77 nM | COc1cc(N2CCC(N3CC[C@H](OC)[C@H](F)C3)CC2)c(-c2cnn(C)c2)cc1Nc1ncc(Br)c(Nc2ccc3nccnc3c2P(C)(C)=O)n1 [compound 185]
1.19 nM | 3.47 nM | 0.37 nM | 62 nM | 1.39 nM | COc1cc(N2CCC(N3CCN(CC(F)F)CC3)CC2)c(-c2cnn(C)c2)cc1Nc1ncc(Br)c(Nc2ccc3nccnc3c2P(C)(C)=O)n1 [compound 186]
5.73 nM | 8.73 nM | 0.04 nM | 245 nM | 2.11 nM | COc1cc(N2CC[C@H](OC)[C@H](F)C2)c(-c2cnn(C)c2)cc1Nc1ncc(Br)c(Nc2ccc3nccnc3c2P(C)(C)=O)n1 [compound 187]
5.62 nM | 0.87 nM | 0.43 nM | 56.6 nM | 0.61 nM | COc1cc(N2CCC(C)(OC)CC2)c(-c2cnn(C)c2)cc1Nc1ncc(Br)c(Nc2ccc3nccnc3c2P(C)(C)=O)n1 [compound 188]
1.08 nM | 23.6 nM | 0.16 nM | 128 nM | 9.18 nM | COc1cc(N2CCC(N3CCN(C)CC3)C(F)C2)c(-c2cnn(C)c2)cc1Nc1ncc(Br)c(Nc2ccc3nccnc3c2P(C)(C)=O)n1 (centres unmarked) [compound 189]
4.37 nM | 8.69 nM | 0.53 nM | 194 nM | 4.16 nM | COc1cc(N2CCC(N3CCN(C)CC3)CC2)c(-c2cnn(C)c2)cc1Nc1ncc(Br)c(Nc2ccccc2N(C)S(=O)(=O)C2CC2)n1 [compound 190]
2.44 nM | 11.4 nM | 0.23 nM | 70 nM | 3.47 nM | COc1cc(N2CCN(CCN3CCOCC3)CC2)c(-c2cnn(C)c2)cc1Nc1ncc(Br)c(Nc2ccc3nccnc3c2P(C)(C)=O)n1 [compound 191]
0.99 nM | 9.83 nM | 0.27 nM | 59.9 nM | 4.48 nM | COc1cc(N2CCC(N3CCN(C)C(C)C3)CC2)c(-c2cnn(C)c2)cc1Nc1ncc(Br)c(Nc2ccc3nccnc3c2P(C)(C)=O)n1 (centres unmarked) [compound 193]
2.85 nM | 16.4 nM | 0.17 nM | 79.5 nM | 5.56 nM | COc1cc(N2CCC3(CC2)CN(C)CCN3C)c(-c2cnn(C)c2)cc1Nc1ncc(Br)c(Nc2ccc3nccnc3c2P(C)(C)=O)n1 [compound 194]
8.52 nM | 12.5 nM | 2.33 nM | 415 nM | 7.7 nM | COc1cc(N2CCC3(CC2)CN(C)CCO3)c(-c2cnn(C)c2)cc1Nc1ncc(Br)c(Nc2cc3c(cc2N(C)S(C)(=O)=O)CC3)n1 [compound 195]
3.35 nM | 20.8 nM | 0.59 nM | 356 nM | 12.3 nM | COc1cc(N2CCC3(CCN(C)CC3)CC2)c(-c2cnn(C)c2)cc1Nc1ncc(Br)c(Nc2cc3c(cc2N(C)S(C)(=O)=O)CC3)n1 [compound 196]
0.62 nM | 14.3 nM | 0.25 nM | 95.6 nM | 7.7 nM | COc1cc(N2CCC(N3CC(C)N(C)C(C)C3)CC2)c(-c2cnn(C)c2)cc1Nc1ncc(Br)c(Nc2ccc3nccnc3c2P(C)(C)=O)n1 (centres unmarked) [compound 197]
0.62 nM | 9.49 nM | 0.22 nM | 38 nM | 4.26 nM | COc1cc(N2CCC(OCCN(C)C)CC2)c(-c2cnn(C)c2)cc1Nc1ncc(Br)c(Nc2ccc3nccnc3c2P(C)(C)=O)n1 [compound 198]
7.56 nM | 22 nM | 0.19 nM | 69.6 nM | 7.47 nM | CN1CCN(c2noc3c(Nc4ncc(Br)c(Nc5ccc6nccnc6c5P(C)(C)=O)n4)cc(-c4cnn(C)c4)cc23)CC1 [compound 200]
3.74 nM | 3.75 nM | 0.59 nM | 91.3 nM | 2.93 nM | COc1cc(N2CCC3(CC2)CN(C(C)C)CCO3)c(-c2cnn(C)c2)cc1Nc1ncc(Br)c(Nc2ccc3nccnc3c2P(C)(C)=O)n1 [compound 202]
21.2 nM | 20 nM | 0.47 nM | 351 nM | 10.6 nM | COc1cc(N2CCC3(CCOC3)C2)c(-c2cnn(C)c2)cc1Nc1ncc(Br)c(Nc2ccc3nccnc3c2P(C)(C)=O)n1 (centres unmarked) [compound 203]
